Here are results for one compound from patent US20130236904A1, “METHOD FOR SCREENING FOR MATERIALS FOR PROMOTING THE DIFFERENTIATION OF SKIN CELLS” (AMOREPACIFIC CORPORATION, priority 2010, published 2013).

For the assay, the system named is DUOX 1 gene. Put plainly: DUOX 1 gene expression by calcium concentration (Q-RT-PCR). The format is cell-based. The settings on record: normal human epidermal keratinocytes, 1.2 mM calcium (high calcium group) vs 120 μM (control), 24 hours; FIG. 1. As for the experimental part:
Normal human epidermal keratinocytes (human epidermal neonatal keratinocyte cells) are purchased from Lonza, Inc. (Walkersville, Md., USA) and subcultured, and then incubated in a CO2 incubator under a condition of 37° C. and 5% CO2. Cell culture is prepared according to the instructions of Lonza, Inc. (Walkersville, Md., USA). KGM-2 bullet kit [bovine pituitary extract (BPE), 2 ml), human epidermal growth factor (hEGF, 0.5 ml), insulin (0.5 ml), hydrocortisone (0.5 ml), transferrin (0.5 ml), epinephrine (0.5 ml), gentamycin sulfate+amphofericin B (GA-1000, 0.5 ml)] are added to KBM-2 (Clonetics CC-3103) medium (500 ml).
120 μM and 1.2 mM Calcium are added to the culture medium of human epidermal keratinocytes, respectively, and the cells are incubated for 24 hours. Each of them is used as a low calcium group (control group) and a high calcium group (test group). […] The isolated RNA is purified once more using an RNA kit (Qiagen RNeasy kit, Qiagen, Valencia, Calif.) and RNA quality is verified using Agilent 2100 BioAnalyzer (Agilent Technologies, Santa Clara, Calif., USA). cDNA is synthesized from the isolated RNA using a reverse transcription kit (Superscript Reverse Transcriptase (RT) II kit, Invitrogen, Carlsbad, Calif.), and expression of various NOX genes is quantitatively analyzed by means of real time-reverse transcription polymerase chain reaction (Q-RT-PCR). […]

On to `[Ca+2]` [calcium, Calcium], for which the “expression of DUOX 1 gene” value is reported as “more remarkably increased”.
